Measurements from US12054471B2, “Thiocycloheptyne derivatives and their use” (Cristal Delivery B.V., priority 2018, dated 2024).

Tests used:
[1] = Reaction kinetics of model click reaction with benzylazide, measured by NMR (CDCl3); format: physicochemical
Experimental: The alkyne (TMTSHI or BCN-OH) was reacted with 1.3 eq benzylazide and reaction kinetics were measured using NMR (CDCl3). Conversion of TMTHSI with benzyl azide reached 79% after 225 seconds, the reaction with BCN-OH took about 40-fold longer (9312 seconds). The reaction conversion (%) is calculated based on triazole signals, taking the plateau of triazole signal at the end of reaction as 100% level=when all TMTHSI or BCN-OH fully reacted with benzylazide. The results of the measurements are included in FIG. 17A.

[2] = Reaction kinetics with benzylazide monitored by QTOF-ESI mass spectrometry to determine rate constant kt; format: physicochemical; conditions: 1.0 eq benzylazide, ACN/water/acetic acid (3:1:0.01%), MS
Experimental: The kt value for the conversion of benzylazide with BCN-OH and TMTHSI was investigated by monitoring the reactions via mass spectrometry. In this study, QTOF mass spectrometry with an ESI source coupled to it, was utilized as a method of measurements. In detail, the alkyne (TMTSHI or BCN-OH in ACN/water/acetic acid (3:1:0.01%) was reacted with 1.0 eq benzylazide and reaction kinetics were measured using MS. The results of the measurements are included in FIG. 55. The measured kt value for TMTHSI in the reaction with benzylazide is 0.83 M^−1S^−1, which is approximately 7 times faster than BCN-OH (0.12 M^−1S^−1).

[3] = Dommerholt et al.; cited from earlier work
[4] = Storage stability as a powder, checked by 1H-NMR and LC/MS; format: physicochemical; conditions: stored as a powder at both light and dark locations under atmospheric pressure; 1H-NMR and LC/MS (SC_BASE)
Description: TMTHSI was proven to be stable during storage.

SMILES: OCC1[C@H]2CCC#CCC[C@@H]12 (some centres unmarked) [BCN-OH, reference compound]
- reaction time relative to TMTHSI (fold longer) ([1]; 1.3 eq benzylazide, CDCl3, NMR): about 40 fold
- time to reach 79% conversion with benzyl azide ([1]; 1.3 eq benzylazide, CDCl3, NMR): 9312 s
- kt value in the reaction with benzylazide [2]: 0.12 M^−1S^−1

SMILES: CC1(C)C#CC(C)(C)CSC1 [TMTH, 3,3,6,6-tetramethylthiacycloheptyne]
- stability of TMTH [3]: poor stability

SMILES: CC1(C)C#CC(C)(C)CS(=N)(=O)C1 [Compound 3, 1-imino-3,3,6,6-tetramethyl-4,5-didehydro-2,3,6,7-tetrahydro-1H-1λ^6-thiepine 1-oxide]
- compound still in tact after storage [4]: ≥ 10 months
- time to reach 79% conversion with benzyl azide ([1]; 1.3 eq benzylazide, CDCl3, NMR): 225 s
- Conversion with benzyl azide ([1]; after 225 seconds, 1.3 eq benzylazide, CDCl3, NMR, based on triazole signals): 79%
- comparison of reaction kinetics with BCN-OH (FIG. 17A) ([1]; reaction with benzylazide, NMR): significantly faster than BCN-OH
- kt value in the reaction with benzylazide [2]: 0.83 M^−1S^−1
- rate relative to BCN-OH (times faster) [2]: approximately 7 times

SMILES: CC1(C)C#CC(C)(C)CS(=O)(=NC(=O)ON2C(=O)CCC2=O)C1 [Compound 12, 2,5-dioxopyrrolidin-1-yl (3,3,6,6-tetramethyl-1-oxido-4,5-didehydro-2,3,6,7-tetrahydro-1λ^6-thiepan-1-ylidene)carbamate]
- compound still in tact after storage [4]: ≥ 4 months
